Experimental data as given in patent publication US5843885A, “ICAM-1/LFA-1 short-chain peptides and method of using same” (The University of Kansas, priority 1997, dated 1998).
Where no end group is shown, it is not given here.

How the values were obtained:
ICAM-1 on Molt3 cells = molecular target: T1, ICAM-1 on Molt3 cells (Homo sapiens, UniProt P05362); experiment: Conformation modulator assay: binding of FITC-labeled RB-1-88 peptide to T-cells (FACS); conditions: first peptide 4550 μM, then FITC-labeled RB-1-88 1.90 μM
T1 construct: host or cells: Molt3 human T-cell line
T1 sequence (P05362 28-532): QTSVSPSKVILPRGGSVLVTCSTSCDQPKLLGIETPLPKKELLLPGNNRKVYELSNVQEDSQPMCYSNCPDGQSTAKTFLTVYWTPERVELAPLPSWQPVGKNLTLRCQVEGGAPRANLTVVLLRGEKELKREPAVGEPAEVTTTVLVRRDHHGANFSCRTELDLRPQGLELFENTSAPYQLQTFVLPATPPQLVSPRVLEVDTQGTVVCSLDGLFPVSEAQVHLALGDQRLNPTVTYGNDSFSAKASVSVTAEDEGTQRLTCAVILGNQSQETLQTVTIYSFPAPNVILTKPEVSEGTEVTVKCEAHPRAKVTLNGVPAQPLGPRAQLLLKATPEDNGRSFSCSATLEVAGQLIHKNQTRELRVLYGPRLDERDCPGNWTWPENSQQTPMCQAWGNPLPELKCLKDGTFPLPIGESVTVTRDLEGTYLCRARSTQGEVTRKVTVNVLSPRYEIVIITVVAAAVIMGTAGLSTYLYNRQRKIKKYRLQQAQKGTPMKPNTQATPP
Experimental: The antibody binding assay of Example 2 was twice repeated at a peptide concentration of 4550 μM, each time substituting a 455 nmol quantity of synthetic peptide selected from the group consisting of ICAM-based peptide SC-3-111 (Sequence ID No. 10) and LFA-based peptide LJCRF-4 (Sequence ID No. 16) in respective assays. Following incubation for 30 minutes at 37° C. after introduction of the first peptides, both incubated culture were supplemented by an additional quantity of FITC-labeled RB-1-88 (Sequence ID No. 19) peptide in a quantity sufficient to provide a 1.90 μM concentration in the cell/PBS solution.
Following addition of the RB-1-88 (Sequence ID No. 19) peptide, the mixture was incubated for 30 minutes at 4° C., washed three times with 500 μl PBS/BSA, resuspended in 500 μl PBS/BSA and immediately subjected to a flow cytometer analysis as before. Table 3 presents the results of this analysis, which are also depicted in FIGS. 8 (SC-3-111) and 9 (LJCRF-4).

Molt3 cells = experiment: Cell metabolic assay (MTT); format: cell-based, human
Experimental: After taking the photographs in Example 3 (and in some instances no photographs were taken), cell metabolic activity was assessed by an MTT assay. A 37.5 μl portion of MTT dye (purchased from SIGMA of St. Louis, Mo.), i.e., 3-[4,5-dimethyl thiazole-2yl]-2, 5-diphenyl tetrazolium bromide; thiazolyl blue) was added to each well, and incubated with the cells at 37° C. for about six hours. After incubation, a 250 μl quantity of a MTT solubilization solution (of a type that may be purchased from either Fischer Scientific of St. Louis, Mo. or BCD Labs of Lawrence, Kans.) was added to each well, and incubated with the cells at room temperature overnight. In the morning, the spectrophotometric absorption of each plate was determined at 570 nm in a microplate ELISA reader manufactured by Cambridge Technologies of Watertown, Mass., in order to assess cell viability as an indicator of potential peptide toxicity.

[1] = molecular target: T2, ICAM-1 (CD54) on Molt3 cells (Homo sapiens, UniProt P05362); experiment: Antibody binding assay (FACS): anti-CD54 mAb binding to Molt3 T-cells; conditions: for Fluorescence, % change from control of the medium fluorescence intensity: mAb CD54
T2 construct: host or cells: Molt3 human T-cell line
T2 sequence (P05362 28-532): as above

[2] = molecular target: T3, LFA-1 (CD11a) on Molt3 cells (Homo sapiens, UniProt P20701); experiment: Antibody binding assay (FACS): anti-CD11a mAb binding to Molt3 T-cells; conditions: for Fluorescence, % change from control of the medium fluorescence intensity: mAb CD11a, average ± standard error; for blocking efficiency: single run (FIGS. 2 and 3)
T3 construct: host or cells: Molt3 human T-cell line
T3 sequence (P20701 26-1170): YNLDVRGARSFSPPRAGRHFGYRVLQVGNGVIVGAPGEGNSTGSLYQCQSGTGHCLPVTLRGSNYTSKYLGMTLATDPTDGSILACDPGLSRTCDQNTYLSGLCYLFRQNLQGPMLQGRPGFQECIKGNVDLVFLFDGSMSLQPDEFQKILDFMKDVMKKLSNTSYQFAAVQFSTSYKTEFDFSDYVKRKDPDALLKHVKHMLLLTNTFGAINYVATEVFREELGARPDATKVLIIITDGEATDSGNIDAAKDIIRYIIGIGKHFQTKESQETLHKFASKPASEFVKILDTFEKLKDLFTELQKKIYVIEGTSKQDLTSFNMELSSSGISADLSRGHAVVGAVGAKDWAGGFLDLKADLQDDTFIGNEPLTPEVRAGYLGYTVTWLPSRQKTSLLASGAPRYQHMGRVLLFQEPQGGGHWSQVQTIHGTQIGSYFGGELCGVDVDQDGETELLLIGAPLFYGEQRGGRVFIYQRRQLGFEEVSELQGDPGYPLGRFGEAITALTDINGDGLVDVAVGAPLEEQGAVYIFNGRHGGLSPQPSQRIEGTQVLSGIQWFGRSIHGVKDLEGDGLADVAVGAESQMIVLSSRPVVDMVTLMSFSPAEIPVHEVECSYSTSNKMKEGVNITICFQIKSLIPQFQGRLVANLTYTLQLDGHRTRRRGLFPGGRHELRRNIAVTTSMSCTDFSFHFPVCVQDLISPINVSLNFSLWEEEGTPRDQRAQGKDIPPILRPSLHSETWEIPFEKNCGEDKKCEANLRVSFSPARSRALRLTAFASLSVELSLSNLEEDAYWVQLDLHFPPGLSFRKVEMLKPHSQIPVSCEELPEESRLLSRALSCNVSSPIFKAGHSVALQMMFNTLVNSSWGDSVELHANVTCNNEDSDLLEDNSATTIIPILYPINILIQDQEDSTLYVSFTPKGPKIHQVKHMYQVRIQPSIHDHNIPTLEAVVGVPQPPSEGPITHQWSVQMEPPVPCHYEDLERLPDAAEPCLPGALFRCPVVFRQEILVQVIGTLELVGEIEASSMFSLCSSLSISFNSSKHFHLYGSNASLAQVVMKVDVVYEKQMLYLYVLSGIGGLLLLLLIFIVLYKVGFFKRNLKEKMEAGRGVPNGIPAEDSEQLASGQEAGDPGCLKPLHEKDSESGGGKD
T3 sequence (P05107 23-769 partner): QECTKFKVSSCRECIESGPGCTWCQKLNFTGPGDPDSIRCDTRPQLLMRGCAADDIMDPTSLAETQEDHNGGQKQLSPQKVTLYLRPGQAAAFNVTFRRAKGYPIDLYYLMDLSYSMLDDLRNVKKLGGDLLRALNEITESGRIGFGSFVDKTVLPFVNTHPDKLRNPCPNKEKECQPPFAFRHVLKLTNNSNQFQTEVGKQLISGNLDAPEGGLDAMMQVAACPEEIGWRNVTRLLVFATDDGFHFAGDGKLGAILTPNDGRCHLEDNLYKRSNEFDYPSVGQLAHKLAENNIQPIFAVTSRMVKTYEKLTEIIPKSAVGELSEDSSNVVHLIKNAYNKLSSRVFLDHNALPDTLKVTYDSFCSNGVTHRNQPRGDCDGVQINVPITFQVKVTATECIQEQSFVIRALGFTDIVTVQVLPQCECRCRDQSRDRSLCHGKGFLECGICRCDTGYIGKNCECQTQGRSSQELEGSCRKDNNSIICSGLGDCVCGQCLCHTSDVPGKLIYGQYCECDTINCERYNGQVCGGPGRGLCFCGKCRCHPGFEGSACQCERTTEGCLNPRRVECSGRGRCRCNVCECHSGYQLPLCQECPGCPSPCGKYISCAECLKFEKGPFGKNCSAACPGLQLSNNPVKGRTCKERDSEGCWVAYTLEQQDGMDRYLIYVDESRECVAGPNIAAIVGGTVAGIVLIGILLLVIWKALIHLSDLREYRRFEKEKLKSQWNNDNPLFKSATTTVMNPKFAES
Experimental: A 1 ml quantity of the Molt3 inoculum was warmed to 37° C. and transferred by pipette into about 25 ml of a growth culture medium including RPMI 1640 lymphocyte growth medium (Fisher Scientific of St. Louis, Mo.) mixed with 10% by volume fetal calf serum, 100 units/ml penicillin, 100 μg/ml streptomycin and 2 mM glutamine. The inoculated culture was incubated for three to four days at 37° C. under a normal atmosphere having about 5% CO2 added thereto. This culture was capable of being maintained indefinitely by siphoning away the top (non-cell containing) layer and adding 50 ml (or more) of growth culture medium at intervals of three to four days.
An aqueous buffer solution including Dulbecco's phosphate buffered saline and bovine serum albumin ("PBS/BSA solution") was prepared for use, and included a mixture of 200 mg KH2 PO4, 1.15 g Na2 HPO4, 100 mg CaCl2, 200 mg KC1, 100 mg MgCl2.6H2 O, 8 g NaCl, with distilled water added to a final 1 liter volume at room temperature, thus, forming a "PBS" solution of pH 7.4 to which was added 0.5% by weight bovine serum albumin.
An aliquot of about 7 ml was removed from the incubated culture medium and subjected to washing with the PBS/BSA solution. The washing procedure was initiated by placing the aliquot in a centrifuge (Model GT422 from Jouan, distributed Piruscio & Assoc. of Manchester, Mo.) at 1400 rpm for 6.5 minutes to separate the cells from the growth medium. The supernatant fluid was decanted, a 5 ml portion of PBS/BSA solution was transferred by pipette into the pellet, and the mixture was again centrifuged as before. The resulting supernatant fluid was decanted and the cells from the pellet were resuspended in PBS/BSA solution at a titer of about 1×10^6 cells/ml. A 500 μl portion of the solution containing the resuspended cells was placed in a microcentrifuge (Marathon 13K/M from Fisher Scientific of St. Louis, Mo.) at 3500 rpm for six minutes, to provide a washed pellet.
[…] The cells were incubated with the peptide cocktail at 37° C. for 45 minutes.
After incubation with the peptide cocktail, several antibodies were successively mixed into the incubated solution. A 75 μl portion of anti-IgM solution (a mixture of 10 μl of goat anti-human IgM stock purchased from Jackson Immuno Research of Westgrove, Pa; and 65 μl of PBS/BSA solution) was added to the peptide cocktail for blocking of nonspecific binding of the secondary antibody. The resulting mixture was incubated for 10 minutes on ice. About 0.1 μg of a primary antibody including mouse IgG anti-human CD11a (purified according to conventional protocols at the University of Kansas Department of Pharmacology and Toxicology from an American Type Culture hybridoma cell line having Catalogue Number HB-202) was next stirred into the mixture, which was then incubated for 30 minutes at room temperature. The incubated mixture was placed in a microcentrifuge at 3500 rpm for six minutes to remove the cells from the mixture, and the cell pellet was washed two times by adding 500 μl aliquots of PBS/BSA solution and microfuging to remove non-bound antibodies from the cells as before. The resulting washed pellet was resuspended in 100 μl of a secondary antibody cocktail including 5 μl of fluorescein isothiocyanate ("FITC") labeled goat anti-mouse IgG (from CALTAG of South San Francisco, Calif.) and 95 μl of PBS/BSA solution. The resulting solution was incubated for 30 minutes at room temperature in the dark.
The incubated solution including the secondary antibody cocktail was microfuged at 3500 rpm for six minutes to remove the cells from the solution, and the cell pellet was washed two times with 500 μl portions of PBS/BSA solution, as before, to remove unbound antibodies. […]

[3] = molecular target: Leucocyte Function Associated antigen-1 (LFA-1), on Molt3 human T-cells (human); experiment: flow cytometry on Molt3 T-cells; control without peptide; FITC goat anti-mouse IgG secondary
[4] = molecular target: Leucocyte Function Associated antigen-1 (LFA-1), on Molt3 human T-cells (human); experiment: flow cytometry on Molt3 T-cells preincubated with SC-3-111 (run of FIG. 2); FITC goat anti-mouse IgG secondary
[5] = molecular target: Leucocyte Function Associated antigen-1 (LFA-1), on Molt3 human T-cells (human); experiment: flow cytometry on Molt3 T-cells; peptide 4550 µM; probe antibody mouse IgG anti-human CD11a; average of 2 runs
[6] = peptide 4550 μM, average ± standard error

Row | Molecule | MTT % Viability (Molt3 cells; 230 μM) [%] | MTT % Viability (Molt3 cells; 460 μM) [%] | MTT % Viability (Molt3 cells; 910 μM) [%] | MTT % Viability (Molt3 cells; 1820 μM) [%] | Fluorescence, % change from control of the medium fluorescence intensity ([2]; peptide 2275 μM) | Fluorescence, % change from control of the medium fluorescence intensity ([2]; peptide 4550 μM) [%] | further results
1 | DLSYSLDDLRNVKKLGGDLLRALNE [LJCRF-4] | 101 | 94 | 60 | 11 |  |  | FACS Analysis (RB-1-88 binding), shift from control (ICAM-1 on Molt3 cells): +145%; MTT % Viability (Molt3 cells; 115 μM): 99%; MTT % Viability (Molt3 cells; 115 μM, listed as SC-3-223): 103%; MTT % Viability (Molt3 cells; 230 μM, listed as SC-3-223): 109%; MTT % Viability (Molt3 cells; 460 μM, listed as SC-3-223): 112%; MTT % Viability (Molt3 cells; 910 μM, listed as SC-3-223): 108%; MTT % Viability (Molt3 cells; 1820 μM, listed as SC-3-223): 75%; Fluorescence, % change from control of the medium fluorescence intensity ([1]; peptide 2275 μM, average ± standard error): +3 ± 1%; Fluorescence, % change from control of the medium fluorescence intensity ([1]; peptide 6825 μM): +521%; curve shift / median peak enhancement ([1]; single run (FIG. 4), 4550 μM, anti-ICAM-1 mAb): +447%
2 | DQPKLLGIETPLPKKELLLPGNNRK [LJCRF-2] | 38 | 38 | 38 | 43 | +48 ± 8% | -43 ± 7 | MTT % Viability (Molt3 cells; concentration not given): 38%
3 | GVDVDQDGETELIGAPLFYGEQRG [LJCRF-5] | 84 | 81 | 52 | 20 |  |  | MTT % Viability (Molt3 cells; 115 μM): 95%; metabolic activity in MTT assay (Molt3 cells; 1820 μM): decrease in metabolic activity; Fluorescence, % change from control of the medium fluorescence intensity [1, 6]: -17%
4 | ITDGEATDSGNIDAAKDIIYIIGI [LJCRF-6] |  |  |  |  |  |  | Fluorescence, % change from control of the medium fluorescence intensity [1, 6]: -4%
5 | KELLLPGNNRKVYELSNVQEDSQP [LJCRF-3] |  |  |  |  |  | -13 ± 19 | 
6 | LPRGGSVLVTG [MC-1-80] |  |  |  |  |  |  | metabolic activity in MTT assay (Molt3 cells; 910 μM): cellular respiration was enhanced
7 | QTSVSPSKVI [SC-3-111] | 93 | 95 | 89 | 69 | -12 ± 4% | -29 ± 2 | MTT % Viability (Molt3 cells; concentration not given): 85%; % change of median peak from control ([2]; single run (FIG. 2), 4550 μM, anti-CD11a): -51%; blocking efficiency ([2]; 4550 μM, anti-CD11a): 51%
8 | QTSVSPSKVILPRGGSVLVTG [LJCRF-1] |  | 93 | 92 | 66 | -12 ± 2% | -29 ± 3 | blocking efficiency ([2]; 4550 μM, anti-CD11a): 65%
9 | mouse IgG anti-human CD11a (from American Type Culture hybridoma cell line HB-202) (antibody) |  |  |  |  |  |  | median peak fluorescence intensity (fluorescence intensity) [3]: 264; median peak fluorescence intensity (fluorescence intensity) [4]: 129
10 | KELLLPGNNRKVYELSNVQEDSQP [LJCRF-3] |  |  |  |  |  |  | % change from control of the median fluorescence intensity (% change from control) [5]: -13
